Measurements as given in patent US12492224B2, “Bicyclic peptide ligands specific for PD-L1” (BicycleTx Limited, priority 2018, dated 2025).
pKd: −log10 of the molar value. Where no end group is shown, it is not given here. [ ]: non-standard residue; d: D form. hArg = N=C(N)NCCCC[C@H](N)C(=O)O; Aad = N[C@@H](CCCC(=O)O)C(=O)O; Nva = CCC[C@H](N)C(=O)O

How the values were obtained:
human PD-L1 = molecular target: T1, human PD-L1 (Homo sapiens, UniProt Q9NZQ7); assay: PD-L1 SPR Binding Assay (Biacore), human; conditions: 25° C.
T1 construct: purchased Sino Biologicals or R&D systems
Method: The protein was desalted to remove uncoupled biotin using spin columns into PBS. For analysis of binding, a Biacore 3000 instrument was used utilizing a CM5 sensor chip (GE Healthcare). Streptavidin was immobilized on the chip using standard amine-coupling chemistry at 25° C. with HBS-N (10 mM HEPES, 0.15 M NaCl, pH 7.4) as the running buffer. The carboxymethyl dextran surface was activated with a 12 min injection of a 1:1 ratio of 0.4 M 1-ethyl-3-(3-dimethylaminopropyl) carbodiimide hydrochloride (EDC)/0.1 M N-hydroxy succinimide (NHS) at a flow rate of 10 μl/min. For capture of streptavidin, protein was diluted to 0.1 mg/ml in 10 mM sodium acetate (pH 4.5) and captured by injecting 70 μl onto the activated chip surface. Residual activated groups were blocked with a 7 min injection of 1 M ethanolamine (pH 8.5). Biotinylated PD-L1 stock was diluted 1:100 in HBS-N and captured on one flow cell at 5 μl/min to a level of 1000-1300 RU. Buffer was changed to PBS/0.05% Tween 20 and a dilution series of the peptides was prepared in this buffer with a final DMSO concentration of 0.5%. The top concentrations were 200 nM or 500 nM with 6 2-fold dilutions. The SPR analysis was run at 25° C. at a flow rate of Flow rate 50 μl/min with 60 seconds association and 400 seconds disassociation. Data were corrected for DMSO excluded volume effects. All data were double-referenced for blank injections and reference surface using standard processing procedures and data processing and kinetic fitting were performed using Scrubber software, version 2.0c (Biologic Software). Data were fitted using mass transport model allowing for mass transport effects where appropriate.

PD-1/PD-L1 interaction = molecular target: T2, PD-1/PD-L1 interaction (Homo sapiens, UniProt Q9NZQ7); assay: PD-1/PD-L1 Blockade Bioassay (Jurkat PD-1 NFAT-luciferase / CHO-K1 PD-L1); type: cell-based; conditions: FIG. 1 and Table 6
T2 construct: host or cells: CHO-K1 (human PD-L1) and Jurkat (human PD-1, NFAT-luciferase)
Method: Effector Jurkat cells engineered to overexpress human PD-1 and express a luciferase gene under the NFAT response element were purchased from Promega. Target CHO-K1 cells which overexpress human PD-L1 and an engineered cell surface protein designed to activate the Jurkat's T cell receptor in an antigen-independent manner were also purchased from Promega. CHO-K1 cells were plated the day before the assay in Ham's F-12 Medium+10% FBS and were allowed to adhere to the plate. On the day of the assay, media was removed and Jurkat cells were plated with a dose response of test articles in RPMI1640 media with 1% FBS (80 μL total volume per well). […] After 6 hours of incubation at 37° C., 5% CO2, 80 μL of Bio-Glo reagent (Promega) was added to each well and allowed to equilibrate for 10 minutes at room temperature. Luminescence was read on the Clariostar plate reader (BMG LabTech). Fold induction was calculated by dividing the luminescence signal by the average of the background wells (wells with both cell lines and no test article). Data was graphed in Prism and fit to a 4-parameter logistic curve.

T2 sequence (Q9NZQ7 19-290): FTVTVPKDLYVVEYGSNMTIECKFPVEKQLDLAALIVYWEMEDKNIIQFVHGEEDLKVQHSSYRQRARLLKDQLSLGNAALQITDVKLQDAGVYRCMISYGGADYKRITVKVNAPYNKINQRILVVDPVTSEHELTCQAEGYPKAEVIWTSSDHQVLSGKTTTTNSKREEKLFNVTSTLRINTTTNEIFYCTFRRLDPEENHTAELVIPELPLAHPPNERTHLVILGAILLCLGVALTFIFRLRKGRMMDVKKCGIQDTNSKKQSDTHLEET
T1 sequence (Q9NZQ7 19-290): as above

Row | Substance | pKd (human PD-L1) | ability to block PD-1/PD-L1 interaction between PD-1 expressing T cells and CHO-K1 stable expressing PD-L1 (PD-1/PD-L1 interaction)
1 | Ac-KCS[Aad]GWLTMCLKLHLC (cysteine pairing not given here) [BCY11824] | 7.22 | 
2 | SDKCSAGWLTMCQK[Nle]HLCA [BCY10071] | 7.24 | 
3 | SDKCSAGWLTMC[Chg]KLHLCA [BCY10066] | 7.84 | 
4 | SDKCS[Abu]GWLTMCQKLHLCA [BCY10055] | 7.55 | 
5 | SDKCSAGWLTMCQK[Nva]HLCA (cysteine pairing not given here) [BCY10084] | 7.36 | 
6 | SDKCSAGWLTMCQ[Nle]LHLCA [BCY10068] | 7.26 | 
7 | Ac-DKCS[Aad]GWLTMCQKLHLCPSH-COOH [BCY11853] | 7.75 | 
8 | Ac-SEKCS[Aad]GWLTMCLKLHLC (cysteine pairing not given here) [BCY11825] | 7.54 | 
9 | SDKCS[Aib]GWLTMCQKLHLCA [BCY10054] | 7.51 | 
10 | SDKCSAGWLT[Nle]CQKLHLCA [BCY10058] | 7.22 | 
11 | Ac-[hArg]CS[Aad]GWLTMCLKLHLC (cysteine pairing not given here) [BCY11827] | 7.52 | 
12 | Ac-EKCS[Aad]GWLTMCLKLHLC (cysteine pairing not given here) [BCY11826] | 7.74 | 
13 | SD[HArg]CSAGWLTMCQKLHLCA [BCY10052] | 7.65 | 
14 | [Ac]SD[HArg]CS[Nle]GWLT[hPhe]CLKL[Aib]LCPSH [BCY10959] |  | demonstrated the ability to block PD-1/PD-L1 interaction
15 | Ac-SDKCS[Aad]GWLTMCLKLHLCA [BCY11828] | 7.78 | 
16 | SDKCSAGWLTMCQKLH[Nva]CA [BCY10083] | 7.12 | 
17 | [Ac]SDKCSAGWLTMCKQLNLCPSH-COOH [BCY10939] |  | demonstrated the ability to block PD-1/PD-L1 interaction
18 | Ac-SEKCS[Aad]GWLTMCLKLHLCPSH (cysteine pairing not given here) [BCY11831] | 7.88 | 
19 | SDKCS[Nle]GWLTMCQKLHLCA [BCY10062] | 7.64 | 
20 | SDKCSAGWLTMCQKLH[Nle]CA [BCY10074] | 7.44 | 
21 | [Ac]SDKCSAGWLTMCKQLNLCPSH [BCY10467] |  | demonstrated the ability to block PD-1/PD-L1 interaction
22 | SDKCSAGWLTMCQKL[Aib]LCA [BCY10073] | 7.80 | 
